Reference: ChEMBL document CHEMBL4376882, “Photodynamic Therapy for ras-Driven Cancers: Targeting G-Quadruplex RNA Structures with Bifunctional Alkyl-Modified Porphyrins” (J Med Chem, 2020)
Active and inactive are the calls of the source. No cut-off for these calls is given here.

How the values were obtained:
PANC-1 [1] = test: Cytotoxicity against human PANC1 cells assessed as reduction in metabolic activity at 20 nM after 24 to 72 hrs in dark followed by photoirradiation in presence of NADH by resazurin assay; type: functional, cell-based
[2] = Binding affinity to NRAS RNA g-quadruplex (unknown origin) at 40 degree C by SPR analysis; type: nucleic-acid assay
Quadruplex DNA = test: Binding affinity to human KRAS utr-z RNA g-quadruplex at 40 degree C by SPR analysis; type: nucleic-acid assay
PANC-1 [3] = test: Cytotoxicity against human PANC1 cells assessed as reduction in metabolic activity after 48 hrs in dark followed by photoirradiation in presence of NADH by resazurin assay; type: functional, cell-based; settings: PANC-1, light or radiation study
MIA PaCa-2 = test: Cytotoxicity against human MIAPaCa2 cells harboring G12C point mutation assessed as reduction in metabolic activity after 48 hrs in dark followed by photoirradiation in presence of NADH by resazurin assay; type: functional, cell-based
HEK293 = test: Cytotoxicity against human HEK293 cells assessed as reduction in metabolic activity after 24 to 72 hrs in dark followed by photoirradiation in presence of NADH by resazurin assay; type: ADME, cell-based
PANC-1 [4] = test: Cytotoxicity against human PANC1 cells assessed as reduction in metabolic activity at 20 nM after 24 to 72 hrs in dark followed by photoirradiation in presence of NADH and NAC by resazurin assay; type: functional, cell-based

| Compound | Activity (PANC-1 [1]) | Kd [2] | Kd (Quadruplex DNA) | EC50 (PANC-1 [3]) | Activity (MIA PaCa-2) | Activity (HEK293) | Activity (PANC-1 [4]) |
| --- | --- | --- | --- | --- | --- | --- | --- |
| CCCCCCCCCCCC[n+]1ccc(-c2c3nc(c(-c4cc[n+](C)cc4)c4ccc([nH]4)c(-c4cc[n+](C)cc4)c4nc(c(-c5cc[n+](C)cc5)c5ccc2[nH]5)C=C4)C=C3)cc1.[I-].[I-].[I-].[I-] | Active | 56 to 98 nM | 82 to 202 nM | 13.1 nM | Active | Non-Toxic | inactive |
| CCCCCCCCCCCCCCCC[n+]1ccc(-c2c3nc(c(-c4cc[n+](C)cc4)c4ccc([nH]4)c(-c4cc[n+](C)cc4)c4nc(c(-c5cc[n+](C)cc5)c5ccc2[nH]5)C=C4)C=C3)cc1.[I-].[I-].[I-].[I-] | Active | 56 to 98 nM | 82 to 202 nM | 19.2 nM | Active | Non-Toxic | inactive |
